Source: paper PMC4899718, “Establishing Virulence Associated Polyphosphate Kinase 2 as a drug target for Mycobacterium tuberculosis” (Scientific Reports, 2016)

Experiments:
[1] = target: T1, PPK-2 (MBP-PPK-2) (Mycobacterium tuberculosis, UniProt O05877)
T1 construct: gene ppk2

[2] = target: T1, PPK-2 (MBP-PPK-2); test: luciferase-based ATP synthesis endpoint assay; format: biochemical

T1 sequence (O05877 whole entry, looked up): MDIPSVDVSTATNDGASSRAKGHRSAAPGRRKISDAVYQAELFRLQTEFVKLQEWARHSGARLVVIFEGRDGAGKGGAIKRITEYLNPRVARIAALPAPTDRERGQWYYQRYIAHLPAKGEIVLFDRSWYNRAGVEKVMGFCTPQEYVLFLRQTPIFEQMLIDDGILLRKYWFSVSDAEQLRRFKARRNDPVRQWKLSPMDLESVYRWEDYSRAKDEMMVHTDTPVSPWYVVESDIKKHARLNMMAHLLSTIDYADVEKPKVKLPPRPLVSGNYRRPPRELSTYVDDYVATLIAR

Structure (SMILES)	luciferase-based ATP quantification [1]	inhibition at 100 µM [2]	other results
Nc1ncnc2c1ncn2[C@@H]1O[C@H](COP(=O)(O)OP(=O)(O)O)[C@@H](O)[C@H]1O [ADP]	ATP synthetic activity of PPK-2 increased in the presence of both ADP and enzyme		
O=c1cc2oc3cc(O)c(O)cc3c(-c3ccccc3O)c-2cc1O [NSC-9037]		> 80%	
CCOc1ccc(Nc2c3ccccc3nc3ccccc23)cc1 [NSC-30205]		> 80%	
O=c1c(O)cccc2cc(O)c(O)c(O)c12 [NSC-35676]			% inhibition at 100 μM ([2]; PolyP17 10 μM as phosphate donor, 10 mM MgCl2, pH 7.4, 37 °C, 10 min pre-incubation, luciferase counter-screened): > 80%
CC1Oc2cc3c(-c4c(O)cc(O)c5c(O)c6c(cc45)OC(C)C(C)C6=O)c(O)cc(O)c3c(O)c2C(=O)C1C (stereo not drawn) [NSC-345647]		> 80%	
O=P(O)(O)OP(=O)(O)OP(=O)(O)O [PolyP3]	MBP-PPK-2 could also utilize short chain polyphosphates, PolyP3 as the phosphate donor		
